Test results as given in article PMC8002023, “3D Pharmacophore-Based Discovery of Novel KV10.1 Inhibitors with Antiproliferative Activity” (Cancers, 2021).
pIC50: −log10 of the molar value. “Also recorded” adds a separate entry of the source.

How the values were obtained:
[1] = tested on: MCF-7 cells; assay: Cell growth in 2D culture (Incucyte confluence, 72 h), MCF-7; assay type: cell-based; details: for pIC50: high KV10.1 and low hERG expression
Experimental: Cell lines MCF-7 (DSMZ ACC 115), PANC-1 (DSMZ ACC 783), and hTERT-RPE1 (ATCC CRL 4000) were grown in the media recommended by the cell provider in a humidified atmosphere at 5% CO2 and 37 °C. For cell growth experiments, 10^4 cells/well were seeded in 96-well flat bottom culture plates (Corning) and allowed to grow for 24 h. The compounds were then added in the corresponding growth medium, and the plate was imaged every hour for 72 h (two images per well and eight wells per condition in two independent experiments for compound 8 and five for ZVS-08 and compound 1) in an Incucyte system (Sartorius/Essen biosciences). Culture confluence was determined in the phase contrast images and is expressed as percent confluence per well. The growth was then normalised to the value in the absence of compounds.
KV10.1 inhibitors with a favourable pharmacological profile are promising candidates for cancer therapy. To investigate the activity of the new compounds on cancer cells proliferation, compounds ZVS-08, 1 and 8 were tested on MCF-7, a breast cancer cell line showing high KV10.1 expression and low hERG expression, and on Panc1, a pancreatic cancer cell line with undetectable KV10.1 expression and high level of hERG expression. hTERT-RPE1 cells served as a non-cancer cell line. hTERT-RPE1 cells show transient physiological expression of Kv10.1 that begins during the G2 phase of the cell cycle and extends through mitosis as present in normal cells. Different concentrations of the compounds were added to the culture medium and the growth of the cell was monitored over 72 h (Figure 14).

[2] = tested on: Colo357 tumour spheroids; assay: Apoptosis (caspase 3/7 reporter) in tumour spheroids; assay type: cell-based; details: 50 µM, caspase reporter fluorescence over 72 h, 8.9 µM cycloheximide as sensitizer
Experimental: Spheroids were cultured in round bottom ultra-low attachment 96-well plates (Corning) at a density of 5000 cells/well in 2% Matrigel (Corning) and centrifuged at 1000× g for 10 min. Spheroid formation was monitored continuously in the Incucyte system and treatments were added once spheroids were formed. As apoptosis sensitizer, 8.9 µM cycloheximide was added to controls and treated spheroids. Caspase 3/7 green reagent (Sartorius; 1:1000) was used as recommended by the manufacturer. Caspase 3/7 reagent substrate crosses the cell membrane and its cleavage by activated caspase-3/7 results in the release of a DNA dye and fluorescent staining of nuclear DNA.
To test the ability of the compounds to inhibit tumour progression in a more predictive system, we performed experiments on tumour spheroids of the pancreatic cancer cell line Colo357, which grows efficiently in this culture modality. The cells were seeded in the presence of Matrigel (see methods), allowed to form spheroids, and the compounds (50 µM) were added to the growth medium. The control contained the same amount of the vehicle (0.5% DMSO). Apoptosis was monitored by addition of a fluorescent […] activity reporter at the same time as the compounds. Cleavage of the reporter by caspase results in green florescence, and the intensity of the fluorescence was recorded over 72 h.

[3] = tested on: Salmonella typhimurium strain TA100; assay: Salmonella/microsomal reverse mutation (Ames) assay, TA100; design: key to bacterial background lawn: slightly reduced bacterial background; moderately reduced bacterial background; extremely reduced bacterial background; bacterial background is absent; details: for mutagenic response: TA100, 0.0158–0.158 mg/plate, −S9 and +S9; for cytotoxic concentration to bacterial strain: TA100, −/+ S9 metabolic activation; for induction factor (IF): IF ≥ 2 positive
Experimental: Mutagenicity of compounds ZVS-08 and 8 was tested with the Salmonella/microsomal reverse mutation (Ames) assay on Salmonella typhimurium strains TA98 and TA100 without and with external metabolic activation according to the OECD guidelines (OECD TG 471) with minor modifications. Briefly, 100 µL of ZVS-08 and 8 (0.158, 0.5, 1.58, 5, 15.8, and 50 mg/mL corresponding to the final concentration of 0.0158, 0.05, 0.158, 0.5, 1.58, and 5 mg/plate, respectively), […] bacterial culture of S. typhimurium (overnight culture at 37 °C), and […] of phosphate buffer (for assays without metabolic activation) or 10% S9 mix (for assays with metabolic activation) were added to 2 mL of molten top agar (supplemented with histidine/biotin, final concentration 0.05 mM), gently mixed and poured onto minimal agar plates. The number of His+ revertants was counted after 48 h (TA100) and 72 h (TA98) of incubation at 37 °C. Three plates were used per treatment point. The mutagenic potential of the compounds was expressed as an induction factor (IF), where IF = (number of revertants in the presence of the compound)/(number of revertants in solvent control). Additionally, each plate was checked for possible toxic effects of tested compounds. […] 4-nitroquinoline- N-oxide (4-NQNO; 0.25 μg/plate) for TA98 and sodium azide (NaN3; 0.25 μg/plate) for TA100 were used as positive controls without S9 metabolic activation, while benzo[a]pyrene (B[a]P; 2.5 μg/plate) was used as positive controls for both bacterial strains with S9 metabolic activation.

Compound: O=[N+]([O-])c1cc(C(F)(F)F)ccc1Nc1ccc(OCC(O)CN2CCOCC2)cc1 (centres unmarked) [Compound 8]
- effect on growth of MCF-7 cells ([1]; concentrations tested): ineffective; also recorded: inactive
- apoptosis induction in tumour spheroids [2]: apoptosis statistically significant over the control starting only after 24 h
- mutagenic response [3]: no mutagenic response
- cytotoxic concentration to bacterial strain [3]: ≥ 0.5 mg/plate

Compound: CN(C)CC(O)COc1ccc(Nc2ccc(C(F)(F)F)cc2[N+](=O)[O-])cc1 (centres unmarked) [ZVS-08]
- pIC50 ([1]; Homo sapiens, MCF7, 72 h): 5.17
- pIC50 [1]: ~5.30
- apoptosis induction in tumour spheroids [2]: induced apoptosis efficiently starting very early
- mutagenic response [3]: no mutagenic response
- Average number of revertant colonies (mean ± SD) ([3]; TA100, +S9, 0.0158 mg/plate): 102.67 ± 15.01
- induction factor (IF) ([3]; TA100, +S9, 0.0158 mg/plate): 1.02
- Average number of revertant colonies (mean ± SD) ([3]; TA100, +S9, 0.05 mg/plate): 81.67 ± 14.57
- induction factor (IF) ([3]; TA100, +S9, 0.05 mg/plate): 0.81
- Average number of revertant colonies (mean ± SD) ([3]; TA100, +S9, 0.158 mg/plate): 71.00 ± 7.21
- bacterial background lawn ([3]; TA100, +S9, 0.158 mg/plate): a
- induction factor (IF) ([3]; TA100, +S9, 0.158 mg/plate): 0.71
- Average number of revertant colonies (mean ± SD) ([3]; TA100, +S9, 0.5 mg/plate): 0
- bacterial background lawn ([3]; TA100, +S9, 0.5 mg/plate): b
- Average number of revertant colonies (mean ± SD) ([3]; TA100, +S9, 1.58 mg/plate): 0
- bacterial background lawn ([3]; TA100, +S9, 1.58 mg/plate): d
- Average number of revertant colonies (mean ± SD) ([3]; TA100, +S9, 5 mg/plate): 0
- bacterial background lawn ([3]; TA100, +S9, 5 mg/plate): d
- Average number of revertant colonies (mean ± SD) ([3]; TA100, -S9, 0.0158 mg/plate): 114.00 ±2.00
- induction factor (IF) ([3]; TA100, -S9, 0.0158 mg/plate): 1.29
- Average number of revertant colonies (mean ± SD) ([3]; TA100, -S9, 0.05 mg/plate): 99.67 ± 16.80
- induction factor (IF) ([3]; TA100, -S9, 0.05 mg/plate): 1.12
- Average number of revertant colonies (mean ± SD) ([3]; TA100, -S9, 0.158 mg/plate): 81.00 ± 5.29
- bacterial background lawn ([3]; TA100, -S9, 0.158 mg/plate): a
- induction factor (IF) ([3]; TA100, -S9, 0.158 mg/plate): 0.91
- Average number of revertant colonies (mean ± SD) ([3]; TA100, -S9, 0.5 mg/plate): 0
- bacterial background lawn ([3]; TA100, -S9, 0.5 mg/plate): c
- Average number of revertant colonies (mean ± SD) ([3]; TA100, -S9, 1.58 mg/plate): 0
- bacterial background lawn ([3]; TA100, -S9, 1.58 mg/plate): d
- Average number of revertant colonies (mean ± SD) ([3]; TA100, -S9, 5 mg/plate): 0
- bacterial background lawn ([3]; TA100, -S9, 5 mg/plate): d
- cytotoxic concentration to bacterial strain [3]: ≥ 0.5 mg/plate
